SMILES strings stand for the structures.

In one experiment the test system is Pythium ultimum. The experiment in a line: Pythium ultimum / liquid culture (seedling damping off). The format is cell-based. The following applies: Globisporangium ultimum, growth inhibition determined photometrically, compared to untreated control. The procedure: Pythium ultimum/Liquid Culture (Seedling Damping Off)
Mycelia fragments and oospores of a newly grown liquid culture of the fungus are directly mixed into nutrient broth (PDB potato dextrose broth). After placing a (DMSO) solution of test compound into a microtiter plate (96-well format), the nutrient broth containing the fungal mycelia/spore mixture is added.
The test plates are incubated at 24° C. and the inhibition of growth is determined photometrically 2-3 days after application.

The test system of another experiment is Phytophthora infestans. The experiment is described as follows: whole plant or invertebrate. The format is in vivo. As to conditions: in Solanum lycopersicum, foliar, read-out: control of Phytophthora infestans.
The next experiment has as its system Plasmopara viticola. The experiment in a line: whole plant or invertebrate. The format is in vivo. As to conditions: foliar.

The inhibition of growth is the change of the read-out against control, counted positive when it falls. Low values mean little suppression, high ones strong suppression. `COC(=O)Nc1ccc(-c2cnc3ccc(C(=O)N4CCCc5cc(F)c(OC)cc54)cn23)cn1` [Compound 64, methyl N-[5-[6-(6-fluoro-7-methoxy-3,4-dihydro-2H-quinoline-1-carbonyl)imidazo[1,2-a]pyridin-3-yl]-2-pyridyl]carbamate] gave an inhibition of growth at 20 ppm with Pythium ultimum not below 80%. For the same molecule, the pest or weed control at 200 ppm with Phytophthora infestans and in the experiment on Plasmopara viticola was not below 80% in each case.

Turning to `COC(=O)Nc1ccc(-c2cnc3ccc(C(=O)N4CCCc5cc(F)ccc54)cn23)cn1` [Compound 66, methyl N-[5-[6-(6-fluoro-3,4-dihydro-2H-quinoline-1-carbonyl)imidazo[1,2-a]pyridin-3-yl]-2-pyridyl]carbamate], in the experiment with Pythium ultimum, the inhibition of growth at 20 ppm is not below 80%. For the same molecule, the pest or weed control at 200 ppm in the experiment with Phytophthora infestans and with Plasmopara viticola was not below 80% in each case.

Regarding `COC(=O)Nc1ccc(-c2cnc3ccc(C(=O)N4CC(C(=O)OC)Cc5ccccc54)cn23)cn1` (stereo not shown) [Compound 11, methyl 1-[3-[6-(methoxycarbonylamino)-3-pyridyl]imidazo[1,2-a]pyridine-6-carbonyl]-3,4-dihydro-2H-quinoline-3-carboxylate], the inhibition of growth at 20 ppm in the experiment on Pythium ultimum was not below 80%. Also, the pest or weed control at 200 ppm in the experiment on Phytophthora infestans and in the experiment on Plasmopara viticola was not below 80% in each case.

`COC(=O)Nc1ccc(-c2cnc3c(C)cc(C(=O)N4CCN(C)c5cc(F)ccc54)cn23)cn1` [Compound 2, methyl N-[5-[6-(6-fluoro-4-methyl-2,3-dihydroquinoxaline-1-carbonyl)-8-methyl-imidazo[1,2-a]pyridin-3-yl]-2-pyridyl]carbamate]: the inhibition of growth at 20 ppm with Pythium ultimum is not below 80%. Further, the pest or weed control at 200 ppm in the experiment with Phytophthora infestans and in the experiment on Plasmopara viticola was not below 80% in each case.

With `COC(=O)Nc1ccc(-c2cnc3ccc(C(=O)N4CCCc5c4ccc(F)c5F)cn23)cn1` [Compound 21, methyl N-[5-[6-(5,6-difluoro-3,4-dihydro-2H-quinoline-1-carbonyl)imidazo[1,2-a]pyridin-3-yl]-2-pyridyl]carbamate], the inhibition of growth at 20 ppm in the experiment on Pythium ultimum is not below 80%. Further, the pest or weed control at 200 ppm with Phytophthora infestans and in the experiment on Plasmopara viticola was not below 80% each time.

In the experiment with Pythium ultimum, `COC(=O)Nc1ccc(-c2cnc3ccc(C(=O)N4CCN(C)c5cc(F)ccc54)cn23)cn1` [Compound 3, methyl N-[5-[6-(6-fluoro-4-methyl-2,3-dihydroquinoxaline-1-carbonyl)imidazo[1,2-a]pyridin-3-yl]-2-pyridyl]carbamate] showed an inhibition of growth at 20 ppm not below 80%. Further, the pest or weed control at 200 ppm with Phytophthora infestans and in the experiment on Plasmopara viticola was not below 80% each time.

`COC(=O)Nc1ccc(-c2cnc3ccc(C(=O)N(C)c4ccc(F)cc4OC)cn23)cn1` [Compound 30, methyl N-[5-[6-[(4-fluoro-2-methoxy-phenyl)-methyl-carbamoyl]imidazo[1,2-a]pyridin-3-yl]-2-pyridyl]carbamate]: the inhibition of growth at 20 ppm in the experiment with Pythium ultimum was not below 80%. Also, the pest or weed control at 200 ppm with Phytophthora infestans and with Plasmopara viticola was not below 80% throughout.

`CCOC(=O)C1Cc2cc(F)ccc2N(C(=O)c2ccc3ncc(-c4ccc(NC(=O)OC)nc4)n3c2)C1` (stereo not shown) [Compound 35, ethyl 6-fluoro-1-[3-[6-(methoxycarbonylamino)-3-pyridyl]imidazo[1,2-a]pyridine-6-carbonyl]-3,4-dihydro-2H-quinoline-3-carboxylate] showed an inhibition of growth at 20 ppm in the experiment on Pythium ultimum not below 80%. For the same molecule, the pest or weed control at 200 ppm in the experiment on Phytophthora infestans and in the experiment with Plasmopara viticola was not below 80% throughout.

In the experiment with Pythium ultimum, `COC(=O)Nc1ccc(-c2cnc3ccc(C(=O)N(C)c4cccc5c4OCC5)cn23)cn1` [Compound 4, methyl N-[5-[6-[2,3-dihydrobenzofuran-7-yl(methyl)carbamoyl]imidazo[1,2-a]pyridin-3-yl]-2-pyridyl]carbamate] showed an inhibition of growth at 20 ppm not below 80%. This molecule also yielded a pest or weed control at 200 ppm in the experiment with Plasmopara viticola not below 80%.

On to `COC(=O)Nc1ccc(-c2cnc3ccc(C(=O)N(C)c4ccc(F)cc4F)cn23)cc1` [Compound 78, methyl N-[4-[6-[(2,4-difluorophenyl)-methyl-carbamoyl]imidazo[1,2-a]pyridin-3-yl]phenyl]carbamate], for which, in the experiment on Pythium ultimum, the inhibition of growth at 20 ppm was not below 80%. In the experiment on Plasmopara viticola, the pest or weed control at 200 ppm was not below 80%.

Regarding `COC(=O)Nc1ccc(-c2cnc3ccc(C(=O)N4CCN(C5CC5)c5cc(F)ccc54)cn23)cn1` [Compound 51, methyl N-[5-[6-(4-cyclopropyl-6-fluoro-2,3-dihydroquinoxaline-1-carbonyl)imidazo[1,2-a]pyridin-3-yl]-2-pyridyl]carbamate], the inhibition of growth at 20 ppm in the experiment on Pythium ultimum was not below 80%. Also, the pest or weed control at 200 ppm in the experiment with Phytophthora infestans and with Plasmopara viticola was not below 80% each time.

The values are drawn from patent publication US20260271933A1 (priority 2023, published 2026).
